Bounds are passed on as bounds.

This assay relates to Z-138 cells. Description: Z-138 Methylation Assay (In Cell Western for symmetric di-methyl arginine and DNA content). In kind it is cell-based. Conditions: Homo sapiens, Table D-2, read-out: ICW EC50. The method in brief: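 Symmetric di-methyl arginine signal (800 nm) ratioed to DNA content (700 nm) by In Cell Western after four days of compound treatment of Z-138 suspension cells seeded at 50,000 cells/mL. Percent inhibition set between DMSO and 3 μM reference wells; IC50 curves from triplicates.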
The term EC50 denotes the midpoint of the concentration-response curve. As to `O=C(c1ccc(Cn2nccc2-c2ccc(OCC(O)CN3CCc4ccccc4C3)cc2)cc1)N1CCCC1` (stereo not drawn) [Compound D31], the EC50 lay in the range of 1 to 10 µM.
Take `COC(COc1cccc(CNC2CCCC2)c1)CN1CCc2ccccc2C1` (stereo not drawn) [Compound D32]: the concentration giving a half-maximal response (EC50) was above 20 µM.
Under `OC(CNc1cccc(CNC2CCCC2)c1)CN1CCc2ccccc2C1` (stereo not drawn) [Compound D39] stands 1 to 10 µM; under `OC(COc1cccc(-c2ccccc2)c1)CN1CCc2ccccc2C1` (stereo not drawn) [Compound D43], 1 to 10 µM.
As for `Cn1cnc2ccc(-c3cccc(OCC(O)CN4CCc5ccccc5C4)c3)cc21` (stereo not drawn) [Compound D45], the concentration giving a half-maximal response (EC50) is 0.101 to 1 µM.
With `OC(COc1ccc(C2CCCNC2)cc1)CN1CCc2ccccc2C1` (stereo not drawn) [Compound D47], the EC50 is 0.101 to 1 µM.
Turning to `CC(Oc1cccc(CNC2CCCC2)c1)C(O)CN1CCc2ccccc2C1` (stereo not drawn) [Compound D49], the EC50 lay in the range of 0.101 to 1 µM.
With `CN(CC(O)CN1CCc2ccccc2C1)c1cccc(CNC2CCCC2)c1` (stereo not drawn) [Compound D53], the EC50 was in the range of 0.101 to 1 µM.
As for `OC(COc1cccc(-c2ccc3cn[nH]c3c2)c1)CN1CCc2ccccc2C1` (stereo not drawn) [Compound D58], the EC50 lay within 1 to 10 µM.
With `OC(COc1cccc(-c2ccc3c(c2)OCO3)c1)CN1CCc2ccccc2C1` (stereo not drawn) [Compound D59], the EC50 lay in the range of 10 to 40 µM.
The result for `Cn1cnc2cc(-c3cccc(OCC(O)CN4CCc5ccccc5C4)c3)ccc21` (stereo not drawn) [Compound D60] reads 0.101 to 1 µM; that for `OC(COc1cccc(-c2cc(C(F)(F)F)ccc2Cl)c1)CN1CCc2ccccc2C1` (stereo not drawn) [Compound D62], 1 to 10 µM; that for `CS(=O)(=O)c1ccc(-c2cccc(OCC(O)CN3CCc4ccccc4C3)c2)cc1` (stereo not drawn) [Compound D63], 1 to 10 µM.
For the molecule `OC(COc1cccc(-c2cccc3cccnc23)c1)CN1CCc2ccccc2C1` (stereo not drawn) [Compound D65], the EC50 is 0.101 to 1 µM.
Regarding `CC(=O)c1cccc(-c2cccc(OCC(O)CN3CCc4ccccc4C3)c2)c1` (stereo not drawn) [Compound D67], the EC50 was in the range of 1 to 10 µM.
For the molecule `OC(COc1cccc(-c2cccc(F)c2F)c1)CN1CCc2ccccc2C1` (stereo not drawn) [Compound D68], the EC50 was 10 to 40 µM.
On to `OCc1cccc(-c2cccc(OCC(O)CN3CCc4ccccc4C3)c2)c1` (stereo not drawn) [Compound D72], for which the EC50 was in the range of 1 to 10 µM.
As to `COc1cccc(-c2cccc(OCC(O)CN3CCc4ccccc4C3)c2)c1` (stereo not drawn) [Compound D74], the EC50 is 1 to 10 µM.
The result for `COc1ccc(-c2cccc(OCC(O)CN3CCc4ccccc4C3)c2)cc1` (stereo not drawn) [Compound D75] reads 1 to 10 µM; that for `CC1c2ccccc2CCN1CC(O)COc1cccc(-c2ccc3ncn(C)c3c2)c1` (stereo not drawn) [Compound D80], above 20 µM.
In the case of `CC(C)n1cnc2ccc(-c3cccc(OCC(O)CN4CCc5ccccc5C4)c3)cc21` (stereo not drawn) [Compound D81], the half-maximal effective concentration (EC50) was in the range of 0.101 to 1 µM.
For the molecule `COc1ccc(Cn2cnc3ccc(-c4cccc(OCC(O)CN5CCc6ccccc6C5)c4)cc32)cc1` (stereo not drawn) [Compound D82], the EC50 lay in the range of 1 to 10 µM.
In the case of `OC(COc1cccc(-c2ccc3nc[nH]c3c2)c1)CN1CCc2ccccc2C1` (stereo not drawn) [Compound D83], the EC50 was in the range of 1 to 10 µM.
The result for `OC(COc1cccc(-c2ccc3nn[nH]c3c2)c1)CN1CCc2ccccc2C1` (stereo not drawn) [Compound D84] reads 1 to 10 µM.
`OC(COc1cccc(-c2ccc3c(c2)OCCO3)c1)CN1CCc2ccccc2C1` (stereo not drawn) [Compound D85]: the EC50 lay within 1 to 10 µM.
The result for `OC(COc1cccc(-c2cccc3c2oc2ccccc23)c1)CN1CCc2ccccc2C1` (stereo not drawn) [Compound D86] reads 1 to 10 µM; that for `COc1ccc(-c2cccc(OCC(O)CN3CCc4ccccc4C3)c2)c(Cl)c1` (stereo not drawn) [Compound D88], 1 to 10 µM; that for `OC(COc1cccc(-c2cnc3ccccc3c2)c1)CN1CCc2ccccc2C1` (stereo not drawn) [Compound D89], 1 to 10 µM.
In the case of `COc1ccc(-c2cccc(OCC(O)CN3CCc4ccccc4C3)c2)c(C)c1` (stereo not drawn) [Compound D90], the EC50 was in the range of 1 to 10 µM.
The result for `OC(COc1cccc(-c2ccccc2Cl)c1)CN1CCc2ccccc2C1` (stereo not drawn) [Compound D92] reads 1 to 10 µM; that for `OC(COc1cccc(-c2ccc3ncn(C4CNC4)c3c2)c1)CN1CCc2ccccc2C1` (stereo not drawn) [Compound D208], 1 to 10 µM; that for `OC(COc1cccc(-c2ccc3ncn(C4CCNC4)c3c2)c1)CN1CCc2ccccc2C1` (stereo not drawn) [Compound D209], 0.101 to 1 µM.
In the case of `Cn1cc2ccc(-c3cccc(OCC(O)CN4CCc5ccccc5C4)c3)nc2n1` (stereo not drawn) [Compound D210], the EC50 is 0.101 to 1 µM.
On to `Cn1ncc2c1CN(c1cccc(OCC(O)CN3CCc4ccccc4C3)c1)CC2` (stereo not drawn) [Compound D216], for which the EC50 was 1 to 10 µM.
As for `Cn1cnc2ccc(-c3cc(NCC(O)CN4CCc5ccccc5C4)ccn3)cc21` (stereo not drawn) [Compound D217], the EC50 was 1 to 10 µM.
Under `CN1CC(n2cnc3ccc(-c4cccc(OCC(O)CN5CCc6ccccc6C5)c4)cc32)C1` (stereo not drawn) [Compound D218] stands 0.101 to 1 µM; under `CN1CCC(n2cnc3ccc(-c4cccc(OCC(O)CN5CCc6ccccc6C5)c4)cc32)C1` (stereo not drawn) [Compound D219], 0.101 to 1 µM.
For the molecule `OC(COc1cccc(-c2ccc3ncn(C4CCNCC4)c3c2)c1)CN1CCc2ccccc2C1` (stereo not drawn) [Compound D220], the EC50 was in the range of 0.101 to 1 µM.
For `CN1CCC(n2cnc3ccc(-c4cccc(OCC(O)CN5CCc6ccccc6C5)c4)cc32)CC1` (stereo not drawn) [Compound D221], the EC50 was 0.101 to 1 µM.
`O=C(Cn1ccc2cnc(-c3cccc(OCC(O)CN4CCc5ccccc5C4)c3)nc21)N1CCOCC1` (stereo not drawn) [Compound D222]: the concentration for a half-maximal effect (EC50) was in the range of 0.101 to 1 µM.
For the molecule `OC(COc1cccc(-c2cccc3[nH]cnc23)c1)CN1CCc2ccccc2C1` (stereo not drawn) [Compound D223], the EC50 fell in the range of 0.101 to 1 µM.
With `Cn1cc2ccc(-c3cc(NCC(O)CN4CCc5ccccc5C4)ncn3)cc2n1` (stereo not drawn) [Compound D224], the 50% effective concentration (EC50) is 0.101 to 1 µM.
The result for `Cn1ncc2ccc(-c3ccnc(NCC(O)CN4CCc5ccccc5C4)c3)cc21` (stereo not drawn) [Compound D226] reads 0.101 to 1 µM.
For the molecule `O=C(Cn1ccc2cnc(-c3ccnc(NCC(O)CN4CCc5ccccc5C4)c3)nc21)N1CCCC1` (stereo not drawn) [Compound D233], the EC50 is below 0.1 µM.
As for `O=C(Cn1ccc2cnc(-c3ccnc(NCC(O)CN4CCc5ccccc5C4)c3)nc21)N1CCOCC1` (stereo not drawn) [Compound D234], the EC50 was below 0.1 µM.
Under `OC(CNc1cccc(-c2cccc3[nH]cnc23)c1)CN1CCc2ccccc2C1` (stereo not drawn) [Compound D235] stands 0.101 to 1 µM; under `Cn1cc2ccc(-c3ccnc(NCC(O)CN4CCc5ccccc5C4)c3)cc2n1` (stereo not drawn) [Compound D236], 0.101 to 1 µM.
As for `Cn1ccc2ccc(-c3cc(NCC(O)CN4CCc5ccccc5C4)ncn3)cc21` (stereo not drawn) [Compound D237], the EC50 was in the range of 0.101 to 1 µM.
For the molecule `Cn1cnc2ccc(-c3ccnc(NCC(O)CN4CCc5ccccc5C4)c3)nc21` (stereo not drawn) [Compound D238], the EC50 is below 0.1 µM.
Take `Cn1ccc2cnc(-c3ccnc(NCC(O)CN4CCc5ccccc5C4)c3)nc21` (stereo not drawn) [Compound D239]: the concentration for a half-maximal effect (EC50) was below 0.1 µM.
Regarding `OC(CNc1cc(-c2ccc3ncn(C4CCNC4)c3c2)ccn1)CN1CCc2ccccc2C1` (stereo not drawn) [Compound D240], the EC50 lay within 0.101 to 1 µM.
Consider `OC(CNc1cc(-c2ccc3ncn(C4CCNCC4)c3c2)ccn1)CN1CCc2ccccc2C1` (stereo not drawn) [Compound D241], for which the EC50 is 0.101 to 1 µM.
For the molecule `CC(=O)N1CCC(n2cnc3ccc(-c4ccnc(NCC(O)CN5CCc6ccccc6C5)c4)cc32)CC1` (stereo not drawn) [Compound D242], the EC50 fell in the range of 0.101 to 1 µM.
As for `CC(=O)N1CCC(n2ccc3cnc(-c4cccc(OCC(O)CN5CCc6ccccc6C5)c4)nc32)CC1` (stereo not drawn) [Compound D243], the concentration for a half-maximal effect (EC50) was 0.101 to 1 µM.
As to `CN1CCN(C(=O)Cn2ccc3cnc(-c4cccc(OCC(O)CN5CCc6ccccc6C5)c4)nc32)CC1` (stereo not drawn) [Compound D244], the EC50 is 0.101 to 1 µM.
Turning to `CNC(=O)Cn1ccc2cnc(-c3ccnc(NCC(O)CN4CCc5ccccc5C4)c3)nc21` (stereo not drawn) [Compound D245], the EC50 lay in the range of 0.101 to 1 µM.
With `O=C(Cn1ccc2cnc(-c3ccnc(NCC(O)CN4CCc5ccccc5C4)c3)nc21)N1CCCCC1` (stereo not drawn) [Compound D246], the concentration for a half-maximal effect (EC50) was below 0.1 µM.
`CN1CCN(C(=O)Cn2ccc3cnc(-c4ccnc(NCC(O)CN5CCc6ccccc6C5)c4)nc32)CC1` (stereo not drawn) [Compound D247]: the EC50 is below 0.1 µM.
On to `Cn1ncc2cnc(-c3cccc(OCC(O)CN4CCc5ccccc5C4)c3)cc21` (stereo not drawn) [Compound D248], for which the EC50 was 0.101 to 1 µM.
`O=C(Cn1cnc2ccc(-c3cccc(OCC(O)CN4CCc5ccccc5C4)c3)cc21)N1CCCCC1` (stereo not drawn) [Compound D249]: the EC50 lay within 0.101 to 1 µM.
Take `CN1CCC(n2cnc3ccc(-c4ccnc(NCC(O)CN5CCc6ccccc6C5)c4)cc32)C1` (stereo not drawn) [Compound D250]: the EC50 was in the range of 0.101 to 1 µM.
As for `OC(CNc1cc(-c2ccc3ncn(C4CCOCC4)c3c2)ccn1)CN1CCc2ccccc2C1` (stereo not drawn) [Compound D251], the EC50 lay in the range of 0.101 to 1 µM.
With `CN1CCC(n2cnc3ccc(-c4ccnc(NCC(O)CN5CCc6ccccc6C5)c4)cc32)CC1` (stereo not drawn) [Compound D252], the EC50 was 0.101 to 1 µM.
Under `OC(COc1cccc(-c2ncc3ccn(C4CCNCC4)c3n2)c1)CN1CCc2ccccc2C1` (stereo not drawn) [Compound D253] stands 0.101 to 1 µM; under `OC(CNc1cc(-c2ncc3ccn(C4CNC4)c3n2)ccn1)CN1CCc2ccccc2C1` (stereo not drawn) [Compound D254], 0.101 to 1 µM.
In the case of `OC(CNc1cc(-c2ncc3ccn(C4CCNCC4)c3n2)ccn1)CN1CCc2ccccc2C1` (stereo not drawn) [Compound D255], the EC50 was below 0.1 µM.
`CC(=O)N1CCC(n2ccc3cnc(-c4ccnc(NCC(O)CN5CCc6ccccc6C5)c4)nc32)CC1` (stereo not drawn) [Compound D256]: the EC50 is below 0.1 µM.
For the molecule `O[C@@H](COc1cccc(-c2cccc3cccnc23)c1)CN1CCc2ccccc2C1` [Compound D257], the EC50 was 0.101 to 1 µM.
The result for `Cn1cc2ccc(-c3cccc(NCC(O)CN4CCc5ccccc5C4)c3)nc2n1` (stereo not drawn) [Compound D261] reads 0.101 to 1 µM; that for `CNC(=O)Cn1cnc2ccc(-c3cccc(OCC(O)CN4CCc5ccccc5C4)c3)cc21` (stereo not drawn) [Compound D262], 1 to 10 µM.
Under `O=C(Cn1cnc2ccc(-c3cccc(OCC(O)CN4CCc5ccccc5C4)c3)cc21)N1CCCC1` (stereo not drawn) [Compound D263] stands 0.101 to 1 µM.
Consider `O=C(Cn1cnc2ccc(-c3cccc(OCC(O)CN4CCc5ccccc5C4)c3)cc21)N1CCOCC1` (stereo not drawn) [Compound D264], for which the half-maximal effective concentration (EC50) was in the range of 1 to 10 µM.

Source of the values: patent publication US20150344457A1, “METHODS OF INHIBITING PRMT5” (EPIZYME, INC., priority 2012, published 2015).
